Data from patent publication US4882272A, “High molecular weight kininogen assay” (Temple University - of the Commonwealth System of Higher …, priority 1987, dated 1989).
Peptide text beside a SMILES is read from it.

Biological target: T1, human factor XIa (Homo sapiens, UniProt P03951)
T1 construct: converted to the active enzyme factor XIa by factor XIIa
Assay: Hydrolysis of chromogenic substrate S-2366 by factor XIa
Format: biochemical
Method: According to one embodiment, a chromogenic substrate for factor XIa is incubated with the assay reaction mixture. The substrate should, under the conditions of the assay, be capable of hydrolysis by factor XIa to yield a hydrolysis product whose appearance may be monitored spectrophotometrically or by a microplate reader. Such substrates include, for example, L-pyroglutamyl-L-prolyl-L-arginine-p-nitroanilide and H-D-leucylthreonyl-arginine-p-nitroanilide, available from KabiVitrum in hydrochloride form as "S-2366" and "S-2511", respectively. The enzymatic activity of factor XIa catalyzes the hydrolysis of the peptide-p-nitroanilide bond, releasing the chromophore p-nitroaniline. The appearance of p-nitroaniline may be measured spectrophotometrically after a fixed hydrolysis time, at 405 nm. The change in absorbance is proportional to the enzyme activity.
S-2366 is the preferred substrate.

T1 sequence (P03951 388-625 limits assumed): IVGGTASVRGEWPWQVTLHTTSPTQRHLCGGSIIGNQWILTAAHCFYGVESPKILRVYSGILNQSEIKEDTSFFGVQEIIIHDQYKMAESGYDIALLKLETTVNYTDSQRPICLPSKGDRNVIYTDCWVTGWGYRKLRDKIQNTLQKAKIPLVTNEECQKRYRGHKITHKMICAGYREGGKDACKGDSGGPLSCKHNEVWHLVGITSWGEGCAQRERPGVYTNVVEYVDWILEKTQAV
T1 sequence (P03951 19-387 partner limits assumed): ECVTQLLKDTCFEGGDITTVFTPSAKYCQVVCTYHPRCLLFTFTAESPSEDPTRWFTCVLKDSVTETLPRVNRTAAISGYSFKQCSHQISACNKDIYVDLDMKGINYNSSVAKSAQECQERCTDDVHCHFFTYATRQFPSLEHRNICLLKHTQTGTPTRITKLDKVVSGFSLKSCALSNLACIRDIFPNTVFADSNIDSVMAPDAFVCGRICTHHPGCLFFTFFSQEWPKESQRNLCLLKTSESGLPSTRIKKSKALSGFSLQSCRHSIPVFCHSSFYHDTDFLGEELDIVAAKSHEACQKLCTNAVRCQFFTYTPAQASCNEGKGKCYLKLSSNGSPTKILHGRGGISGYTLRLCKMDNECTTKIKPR

## N=C(N)NCCC[C@H](NC(=O)[C@@H]1CCCN1C(=O)[C@@H]1CCC(=O)N1)C(=O)Nc1ccc([N+](=O)[O-])cc1 [S-2366, L-pyroglutamyl-L-prolyl-L-arginine-p-nitroanilide] (HELM PEPTIDE1{[Glp].P.R.[O=[N+]([O-])c1ccc(N[*:1])cc1]}$$$$V2.0)
  Kcat to Km ratio: 5.5e+06 M⁻¹ s⁻¹
